Laboratory results taken from paper PMC9323974, “Palladium(II) Complexes of Substituted Salicylaldehydes: Synthesis, Characterization and Investigation of Their Biological Profile” (Pharmaceuticals, 2022).

Tests used:
DPPH radical scavenging = details: compound 0.1 mM
Procedure: S1 Antioxidant biological assay
The antioxidant activity of the compounds was evaluated via their ability to scavenge in
vitro free radicals such as DPPH and ABTS and to reduce H2O2. All the experiments were carried
S1.1 Determination of the reducing activity of the stable radical DPPH
To an ethanolic solution of DPPH (0.1 mM) an equal volume solution of the compounds
(0.1 mM) in ethanol was added. Absolute ethanol was also used as control solution. The absorbance
at 517 nm was recorded at room temperature after 30 and 60 min, in order to examine the possible
existence of a potential time–dependence of the DPPH radical scavenging activity [S1]. The DPPH–
scavenging activity of the compounds was expressed as the percentage reduction of the absorbance
values of the initial DPPH solution (DPPH%). NDGA and BHT were used as reference compounds. […]

CT DNA = CT DNA binding by UV-vis spectroscopy; set-up: species or system calf; details: Wolfe–Shimer equation
Procedure: page 8: […] spectroscopy, viscosity measurements and fluorescence emission spectroscopy studies. […] UV-vis spectroscopy was used for the evaluation of the interaction of the compounds with CT DNA, and specifically the possible binding modes of the compounds to CT DNA. Control experiments with DMSO were performed and no changes in the spectra of CT DNA were observed. In order to determine the binding mode, the UV-vis spectra of the compounds were […] concentrations of CT DNA for diverse r (r = [complex]/[DNA]) values. Effective use of the changes […] compounds were calculated by the Wolfe-[…] equation (eq. […] εf) versus [DNA]: (eq. S1) where [DNA] = the concentration of DNA in base pairs, ε f= the extinction coefficient for the free compound at the corresponding λmax, εA = Aobsd/[compound] and εb= the extinction coefficient for the compound in the fully bound form. K b is given by the ratio of slope to the y intercept in plots [DNA]/(εA-εf) versus [DNA]. S3.2 CT DNA-binding studies by viscosity measurements […] presence of increasing amounts of the compounds. The experiments were executed at room temperature and the measurements are devised in a plot (η/η 0)1/3 versus r, where η = the viscosity of DNA in the presence of the compound, and η0 = the viscosity of neat DNA in buffer solution. […] In order to determine and confirm the DNA-binding mode of the compounds, a competitive study with EB as an intercalating marker is performed by fluorescence emission spectroscopy. Therefore, the EB-displacing ability of the compounds from its EB-DNA conjugate was examined. […] solution (150 mM NaCl and 15 mM trisodium citrate at pH 7.0). The potential intercalation of the compounds between the DNA-bases was studied by the addition of a certain amount of the 8 (1 picture or pasted object on this page, not shown here)

BSA [1] = molecular target: T1, BSA (Bos taurus, UniProt P02769); assay: BSA fluorescence quenching; format: binding, bovine; details: for ΔΙ/Ιο (%) BSA fluorescence quenching: BSA 3 μM; for K BSA-binding constant: Scatchard; for relative BSA-fluorescence emission intensity, % of the initial: final value
T1 construct: purchased Sigma-Aldrich Co
Procedure: (§1) S4 Interaction with serum albumins
(§2) S4.1 Study of the affinity for serum albumins
(§3) The albumin–binding study for the compounds was carried out by fluorescence emission quenching experiments using BSA (3 μM) or HSA (3 μM) in buffer solution (15 mM trisodium citrate and 150 mM NaCl at pH 7.0). The tested compounds were used as quenchers with gradually increasing concentrations to monitor the quenching of the emission intensity of tryptophan residues of BSA at 345 nm or HSA at 340 nm [S6]. The fluorescence emission spectra were recorded between 300–500 nm with excitation wavelength of 295 nm. All the experiments were conducted at room temperature. The fluorescence spectra of the compounds were recorded under the same experimental conditions and presented a low–intensity emission band in the region 395–415 nm.
(§4) Consequently, the SA fluorescence emission spectra were modified properly, by subtracting the spectra of the compounds, and quantitative studies followed.
(§5) The extent of the inner–filter effect can be roughly estimated with the following formula: […]
(§6) where Icorr= corrected intensity, Imeas= the measured intensity, c = the concentration of the quencher, d = the cuvette length (1 cm), ε(λexc) and ε(λem) = the ε of the quencher at the excitation and the emission wavelength, respectively, as calculated from the UV –vis spectra of the complexes [S 8].
(§7) The interaction of the quencher (i.e. compounds) with serum albumins [S6] was studied through the Stern–Volmer and Scatchard equations [S6] and corresponding graphs. The values of the respective Stern–Volmer constant KSV (M–1), the quenching constant k q (M–1s–1), the SA– binding constant K (M–1) and the number of binding sites per albumin (n) were calculated.
(§8) According to Stern–Volmer quenching equation [S6] (eq. S2), where I 0 = the initial tryptophan fluorescence intensity of SA, I = the tryptophan fluorescence intensity of SA after the addition of the quencher, kq = the quenching rate constants of SA, K SV = the dynamic quenching constant, τ0 = the average lifetime of SA without the quencher, [Q] = the concentration of the quencher), the Stern –Volmer constant (KSV, M–1) can be obtained by the slope of the diagram I0/I versus [Q]. Taking τ0 = 10–8 s as fluorescence lifetime of tryptophan in SA [S2], the quenching constant (kq, M–1s–1) is calculated from equation S3.
(§9) From the Scatchard equation (eq. S5) [S6]: […]
(§10) (1 picture or pasted object on this page, not shown here) […]
(§11) where n = the number of binding sites per albumin and K = the SA–binding constant. The K constant (M−1) is calculated from the slope in plots (ΔI/I0)/[Q] versus (ΔI/I0) and n is given by the ratio of y intercept to the slope [S9]. […]

HSA = molecular target: T2, HSA (Homo sapiens, UniProt P02768); assay: HSA fluorescence quenching; format: binding; details: for ΔΙ/Ιο (%) HSA fluorescence quenching: HSA 3 μM; for K HSA-binding constant: Scatchard; for relative HSA-fluorescence emission intensity, % of the initial: final value
T2 construct: purchased Sigma-Aldrich Co
Procedure: as §1, §2, §3, §4, §5, §6, §7, §8, §9, §10, §11

BSA [2] = molecular target: T1, BSA; assay: Competitive BSA-fluorescence studies with warfarin and ibuprofen; format: binding, bovine; details: for BSA-binding constant K, Marker: Ibuprofen: ibuprofen 3 μM; for BSA-binding constant K, Marker: Warfarin: warfarin 3 μM; for BSA drug site preference: drug site I (warfarin) vs II (ibuprofen)
Procedure: where n = the number of binding sites per albumin and K = the SA–binding constant. The K constant (M−1) is calculated from the slope in plots (ΔI/I0)/[Q] versus (ΔI/I0) and n is given by the ratio of y intercept to the slope [S9].
S4.2 Competitive SA–fluorescence studies with warfarin and ibuprofen
The competitive studies with warfarin or ibuprofen (site probes) [S10] were performed by tryptophan fluorescence quenching experiments using a fixed concentration of the BSA and site probes (3 μM) in buffer (containing 15 mM trisodium citrate and 150 mM NaCl at pH 7.0). The fluorescence emission spectra were recorded in the presence of increasing amounts of the compounds as quenchers with an excitation wavelength of 295 nm. The Scatchard equation (eq. 7) [S6] and plots were applied on the corrected SA–fluorescence emission spectra in order to determine the BSA–binding constant of the compounds in the presence of warfarin or ibuprofen.

T2 sequence (P02768 25-609): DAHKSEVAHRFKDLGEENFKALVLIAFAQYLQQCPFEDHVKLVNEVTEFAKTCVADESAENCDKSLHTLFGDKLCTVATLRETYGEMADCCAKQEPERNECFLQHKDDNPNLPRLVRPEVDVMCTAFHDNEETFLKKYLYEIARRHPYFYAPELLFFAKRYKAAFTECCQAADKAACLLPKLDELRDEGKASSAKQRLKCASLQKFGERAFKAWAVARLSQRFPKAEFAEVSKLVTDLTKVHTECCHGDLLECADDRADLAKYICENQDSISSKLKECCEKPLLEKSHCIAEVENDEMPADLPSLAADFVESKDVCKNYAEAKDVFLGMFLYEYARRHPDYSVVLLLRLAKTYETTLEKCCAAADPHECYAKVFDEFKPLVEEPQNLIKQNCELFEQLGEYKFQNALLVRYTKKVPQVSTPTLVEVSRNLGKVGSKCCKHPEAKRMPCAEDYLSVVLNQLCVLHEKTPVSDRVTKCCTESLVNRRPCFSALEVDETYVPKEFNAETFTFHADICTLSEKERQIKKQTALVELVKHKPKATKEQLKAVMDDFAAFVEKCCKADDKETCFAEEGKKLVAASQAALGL
T1 sequence (P02769 25-607): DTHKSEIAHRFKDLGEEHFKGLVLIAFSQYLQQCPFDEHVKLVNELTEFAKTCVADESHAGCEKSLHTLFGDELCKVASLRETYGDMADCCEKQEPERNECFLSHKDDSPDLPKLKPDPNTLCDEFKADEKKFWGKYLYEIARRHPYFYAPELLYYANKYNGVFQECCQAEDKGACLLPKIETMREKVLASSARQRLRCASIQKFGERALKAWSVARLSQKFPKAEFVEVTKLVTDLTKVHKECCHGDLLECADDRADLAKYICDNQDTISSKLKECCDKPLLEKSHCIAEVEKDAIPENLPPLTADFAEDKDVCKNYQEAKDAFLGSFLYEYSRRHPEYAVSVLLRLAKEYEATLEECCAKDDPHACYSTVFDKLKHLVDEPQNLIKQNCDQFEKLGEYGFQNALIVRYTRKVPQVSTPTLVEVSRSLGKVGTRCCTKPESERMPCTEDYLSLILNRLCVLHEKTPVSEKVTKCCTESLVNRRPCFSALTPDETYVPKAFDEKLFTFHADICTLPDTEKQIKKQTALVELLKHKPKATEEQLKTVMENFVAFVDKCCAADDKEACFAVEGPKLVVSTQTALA

SMILES | DPPH% (30 min) (DPPH radical scavenging) | DPPH% (60 min) (DPPH radical scavenging) | Kb (DNA-binding constant) (CT DNA) | kq BSA-quenching constant (BSA [1]) | ΔΙ/Ιο (%) BSA fluorescence quenching (BSA [1]) | K BSA-binding constant (BSA [1]) | relative BSA-fluorescence emission intensity, % of the initial (BSA [1]) | kq HSA-quenching constant (HSA) | ΔΙ/Ιο (%) HSA fluorescence quenching (HSA) | K HSA-binding constant (HSA) | relative HSA-fluorescence emission intensity, % of the initial (HSA) | BSA-binding constant K, Marker: Ibuprofen (BSA [2]) | BSA-binding constant K, No Marker (BSA [2]) | BSA-binding constant K, Marker: Warfarin (BSA [2]) | BSA drug site preference (BSA [2])
O=Cc1cc(Cl)cc(Cl)c1[O-].O=Cc1cc(Cl)cc(Cl)c1[O-].[Pd+2] [Complex 3, [Pd(3,5-diCl-salo)2]] | 4.60 ± 0.20% | 2.91 ± 0.11% | 1.90 (±0.12) × 10^6 M^−1 | 1.11 (±0.04) × 10^14 M^−1 s^−1 | 97.2% | 7.82 (±0.24) × 10^5 M^−1 | 2.8% | 5.00 (±0.12) × 10^13 M^−1 s^−1 | 90.4% | 4.10 (±0.17) × 10^5 M^−1 | 9.6% | 2.89 (±0.10) × 10^5 M^−1 | 7.82 (±0.24) × 10^5 M^−1 | 3.26 (±0.34) × 10^5 M^−1 | 
O=Cc1cc(F)ccc1[O-].O=Cc1cc(F)ccc1[O-].[Pd+2] [Complex 4, [Pd(5-F-salo)2]] | 14.82 ± 0.45% | 13.61 ± 0.48% | 2.84 (±0.14) × 10^5 M^−1 | 2.24 (±0.14) × 10^13 M^−1 s^−1 | 85.7% | 8.79 (±0.13) × 10^4 M^−1 | 14.3% | 1.82 (±0.06) × 10^13 M^−1 s^−1 | 75.7% | 1.38 (±0.05) × 10^5 M^−1 | 24.3% | 9.27 (±0.48) × 10^4 M^−1 | 8.79 (±0.13) × 10^4 M^−1 | 6.05 (±0.27) × 10^4 M^−1 | drug site I
COc1ccc(C=O)c([O-])c1.COc1ccc(C=O)c([O-])c1.[Pd+2] [Complex 5, [Pd(4-OMe-salo)2]] | 2.29 ± 0.36% | 3.00 ± 0.25% | 1.27 (±0.10) × 10^6 M^−1 | 2.17 (±0.09) × 10^14 M^−1 s^−1 | 97.2% | 9.18 (±0.27) × 10^5 M^−1 | 2.8% | 6.69 (±0.23) × 10^13 M^−1 s^−1 | 92.2% | 3.56 (±0.12) × 10^5 M^−1 | 7.8% | 6.52 (±0.46) × 10^4 M^−1 | 9.18 (±0.27) × 10^5 M^−1 | 1.46 (±0.14) × 10^5 M^−1 | drug site II
